# Tested on: S. typhi GFP reporter counter-screen, fluorescence, 4 h
# Experiment: S. typhi counter-screen signal inhibition – fluorescence, 4 h, counter-screen for PhoP regulon inhibitor project, dose response (AID 2384)
row,SMILES,IC50 [µM]
1,O=C(CC(=O)c1ccccc1O)c1cccc(F)c1,28.9
2,Cc1cc(Cl)c(OCCCNCc2ccccc2)c(Br)c1,37.5
3,CCn1cc(C(=O)O)c(=O)c2cc(F)c(N3CCN(C)CC3)cc21,1.23
4,Cc1cc([N+](=O)[O-])cc(/C=N\NC(=O)C2COc3ccccc3O2)c1O (centres undefined),30.3
5,Cn1c(CN2CCCC2)nc2cc(NC(=O)COc3ccc(Cl)cc3)ccc21,128
6,CC(=O)Oc1ccccc1C(=O)Nc1ncc([N+](=O)[O-])s1,92
7,Cc1cccc(Nc2c3c(nc4ccccc24)CCC3)c1,60.3
8,O=C(c1cccs1)c1no[n+]([O-])c1C(=O)c1cccs1,39.8
9,O=[N+]([O-])c1cc(CN2CCN(c3cccc(C(F)(F)F)c3)CC2)c2cccnc2c1O,23.1
10,CN1CCCN(S(=O)(=O)c2ccc3ccccc3c2)CC1,46
11,NC(N)=N/N=C/c1ccc(OCc2ccccc2Cl)cc1,39.5
12,CNCCCCOc1ccc(C(C)(C)C)cc1Cl,58.2
13,Cc1c(CCOC(=O)C2C3CC4CC(C3)CC2C4)sc[n+]1CC(=O)c1ccc(Br)cc1 (centres undefined),25.7
14,O=C1NCCN1c1ncc([N+](=O)[O-])s1,28.2
15,C/C(=N\N=C(N)N)c1ccc(Cl)c(Cl)c1,64.4
16,O=C(N/N=C\c1cccc([N+](=O)[O-])c1O)C1COc2ccccc2O1 (centres undefined),11.7
17,O=C1C=CC(=O)N1CCCCCCN1C(=O)C=CC1=O,79.8
18,O=C(NC(=S)NNC(=O)c1cccs1)c1ccco1,52.3
19,CN1CCN(C(c2ccc(Cl)cc2)c2cc(Cl)c3cccnc3c2O)CC1 (centres undefined),19.7
20,O=C(Nc1ccc(Cc2ccncc2)cc1)c1ccc([N+](=O)[O-])o1,126

row,SMILES,IC50 [µM]
1,Cc1ccc(C)c(NC(=O)c2ccccc2O)c1,58.1
2,CCCCCCCCCCOC(=O)Cn1c(COc2ccccc2OC)[n+](C)c2ccccc21,20
3,CC(=O)NC(c1ccc(Cl)cc1Cl)c1ccc2cccnc2c1O (centres undefined),39.6
4,O=c1c(O)cccc2cc(O)c(O)c(O)c12,18.5
5,O=C(Nc1nnc(C2COc3ccccc3O2)o1)c1ccc(F)cc1 (centres undefined),37.8
6,CCCCC(=O)NNC(=S)NC(=O)CCC,92.6
7,O=C(c1ccccc1)c1c2c(cc3sc4ccccc4[n+]13)-c1cccc3cccc-2c13,55.4
8,CC1=NN(c2nc3ccccc3[nH]2)C(=O)C1Cc1ccccc1 (centres undefined),34.2
9,O=[N+]([O-])c1cc(Cl)cc(/C=N/NC(=S)Nc2ccc(S(=O)(=O)N3CCOCC3)cc2)c1O,51
10,O=C(Nc1ccc([N+](=O)[O-])cc1Cl)c1cc(Cl)ccc1O,19.7
11,c1ccc(Nc2nc(NCC3CCCO3)c3ccccc3n2)cc1 (centres undefined),26
12,Cc1ccc(C(=O)O)cc1N=Cc1cc(Br)cc(Br)c1O,16.7
13,c1ccc2c(NCCc3c[nH]c4ccccc34)c3ccccc3nc2c1,36.9
14,CCCCn1c(=N)n(CC(=O)c2ccc(Br)s2)c2ccccc21,45.1
15,OC(CN1CCCCC1)Cn1c2ccccc2c2cc(Br)ccc21 (centres undefined),37.8
16,Nc1nonc1-n1nnc(C(=O)N/N=C/c2ccccc2O)c1CN1CCCC1,112
17,CNCCC=C1c2ccccc2CCc2ccccc21,117
18,Cc1ccc(C(C[N+](=O)[O-])Sc2ccc(N)cc2)cc1 (centres undefined),26.7
19,CN(C)CCCNc1c2ccccc2nc2ccccc12,40.7
20,OCCCCNCc1ccc(OCc2ccccc2Cl)cc1,86

row,SMILES,IC50 [µM]
1,Cc1nonc1C(=O)N/N=C/c1ccc([N+](=O)[O-])o1,51.9
2,CN(C)CCCN1c2ccccc2Sc2ccc(C(F)(F)F)cc21,103
3,CN1CCN(C(c2cccc(Cl)c2)c2ccccc2Cl)CC1 (centres undefined),68.2
4,Cc1ccc(C(OCC(O)CNCc2ccc(F)cc2)c2ccccc2)cc1 (centres undefined),37
5,O=C(Nc1nnc(-c2cccs2)o1)c1cccc(Oc2ccccc2)c1,59.6
6,Cc1ccc(-c2cc(-c3ccc(C)cc3)[n+](-c3ccccc3)c(-c3ccc(C)cc3)c2)cc1,23.6
7,Cc1cc(=O)[nH]c(-n2nc(C)cc2C)n1,68.8
8,CCOC(=O)C1=C(c2ccccc2)NC(N)=NC1c1ccc(OCc2ccc(C(=O)OC)cc2)cc1 (centres undefined),35.8
9,Cc1ccc(C(c2cc(Cl)c3cccnc3c2O)N2CCN(C)CC2)cc1 (centres undefined),30.4
10,CCCCCCCCCCCCCCCC[n+]1ccc(C(N)=O)cc1,9.85
11,CC(=O)NC(=S)NNC(=O)c1ccc(Br)cc1,29.4
12,OC(CNCC1CCCO1)Cn1c2ccc(Cl)cc2c2cc(Cl)ccc21 (centres undefined),23.7
13,Cc1ccc(OCc2nnc(NC(=O)c3cccnc3)s2)cc1,52
14,N=c1n(CCN2CCCCC2)c2ccccc2n1CC(O)COc1ccccc1 (centres undefined),29.7
15,COc1cc([N+](=O)[O-])cc(/C=N/NC(=O)c2cccnc2)c1O,76.1
16,Cc1ccc(CNCCC2=CCCCC2)cc1,70.7
17,CCn1cc(C(=O)O)c(=O)c2cc(F)c(N3CCN(S(=O)(=O)c4ccc(NC(C)=O)cc4)CC3)cc21,131
18,Cc1cccc2sc(N(CCCN(C)C)C(=O)COc3ccc(Cl)cc3)nc12,37.6
19,C/C(=N\Nc1ccc2nncn2n1)c1ccccn1,37.2

# Reference: PubChem BioAssay AID2384 (Southern Research Specialized Biocontainment Screening …, 2010)
